In patent US10966425B2, “Fungicidal compositions” (SYNGENTA PARTICIPATIONS AG, priority 2016, dated 2021):

Legend:
Pyrenophora teres = Pyrenophora teres / barley / leaf disc preventative (net blotch); assay type: in vivo; conditions: 200 ppm, barley leaf segments cv. Hasso, 5-7 days after application
Procedure: Barley leaf segments cv. Hasso are placed on agar in a multiwell plate (24-well format) and sprayed with the formulated test compound diluted in water. The leaf segments are inoculated with a spore suspension of the fungus 2 days after application. The inoculated leaf segments are incubated at 20° C. and 65% rh under a light regime of 12 h light/12 h darkness in a climate cabinet and the activity of a compound is assessed as disease control compared to untreated when an appropriate level of disease damage appears in untreated check leaf segments (5-7 days after application).

Compound	melting point [°C]	control of Pyrenophora teres (Pyrenophora teres)
Cc1ccc2c(ncn2C2=NC(C)(C)Cc3cc(F)ccc32)c1C [Compound E-57]	143 to 145	–
Cc1c(F)ccc2c1ncn2C1=NC(C)(C)C(=O)c2cc(Cl)ccc21 [Compound E-35]	133 to 136	–
CC1(C)N=C(n2cnc3c(Br)cccc32)c2cccc(F)c2C1(C)C [Compound E-4]	48 to 49	–
CC1(C)N=C(n2cnc3c4c(ccc32)CCC4)c2cccc(F)c2C1(C)C [Compound E-51]	177 to 178	–
Cc1c(Br)ccc2c1ncn2C1=NC(C)(C)C(C)(C)c2c(F)cccc21 [Compound E-41]	122 to 124	–
CC1(C)N=C(n2cnc3c(F)c(F)ccc32)c2cccc(F)c2C1(C)C [Compound E-50]	112 to 114	–
Cc1cccc2c1ncn2C1=NC(C)(C)C(C)(C)c2c1ccc(Cl)c2F [Compound E-45]	147 to 151	–
Cc1ccc2c(ncn2C2=NC(C)(C)C(=O)c3cc(Cl)ccc32)c1C [Compound E-36]	196 to 199	–
CC1(C)N=C(n2cnc3cc(Cl)c(Cl)cc32)c2cccc(F)c2C1(C)C [Compound E-39]	126 to 127	–
Cc1cccc2c1C(=O)C(C)(C)N=C2n1cnc2c(C)c(C)ccc21 [Compound E-27]	145 to 149	–
Cc1cccc2c1ncn2C1=NC(C)(C)C(C)(C)c2c(F)cccc21 [X.011]	118 to 120	–
CC1(C)N=C(n2cnc3c(Cl)cccc32)c2cccc(F)c2C1(C)C [Compound E-17]	50 to 51	–
Cc1c(Cl)ccc2c1ncn2C1=NC(C)(C)C(C)(C)c2c(F)cccc21 [Compound E-42]	102 to 103	–
COC(=O)c1cccc2c1ncn2C1=NC(C)(C)C(C)(C)c2c(F)cccc21 [Compound E-24]	178 to 179	–
Cc1cccc2c1ncn2C1=NC(C)(C)C(C)(C)c2c(F)cccc21 [Compound E-1]	45 to 46	–
Cc1ccc2c(ncn2C2=NC3(CC3)C3(CC3)c3ccccc32)c1C [Compound E-58]	141 to 143	–
Cc1cccc2c1ncn2C1=NC(C)(C)C(F)(F)c2ccccc21	142 to 149	–
Cc1cccc2c1ncn2C1=NC(C)(C)C(C)(C)c2ccccc21 [Compound E-16]	–	at least 80%
Cc1cccc2c1ncn2C1=NC(C)(C)C(=O)c2ccccc21 [Compound E-10]	123 to 125	–
CCc1cccc2c1ncn2C1=NC(C)(C)C(C)(C)c2c(F)cccc21 [Compound E-14]	87 to 88	–
CC(C)c1cccc2c1ncn2C1=NC(C)(C)C(C)(C)c2c(F)cccc21 [Compound E-12]	113 to 114	–
Cc1cccc2c1ncn2C1=NC2(CCC2)Cc2ccccc21 [Compound E-43]	132 to 133	–
Cc1cccc2c1ncn2C1=NC(C)(C)C(C)(C)c2c1ccc(F)c2F [Compound E-46]	122 to 125	–
C=Cc1cccc2c1ncn2C1=NC(C)(C)C(C)(C)c2c(F)cccc21 [Compound E-13]	70 to 71	–
Cc1cccc2c1ncn2C1=NC(C)(C)C(=O)c2cc(Cl)ccc21 [Compound E-34]	129 to 133	–
Cc1ccc2c(ncn2C2=NC(C)(C)C(=O)c3ccccc32)c1C [Compound E-25]	159 to 161	–
CC1(C)N=C(n2cnc3c(Cl)cccc32)c2ccc(Cl)cc2C1(F)F [Compound E-37]	197 to 200	–
Cc1cccc2c1C(=O)C(C)(C)N=C2n1cnc2c(C)cccc21 [Compound E-26]	96 to 101	–
Cc1c(F)ccc2c1ncn2C1=NC(C)(C)C(F)(F)c2ccccc21 [Compound E-32]	118 to 121	–
Cc1cccc2c1ncn2C1=NC(C)(C)Cc2c(Br)cccc21 [Compound E-38]	52 to 54	–
